Consider 13 molecules from patent publication US7968725B2, “Pyridinyl modulators of γ-secretase” (Janssen Pharmaceutica N.V., priority 2008, dated 2011).

Structures are written as SMILES.

The first assay has as its target T1, γ-secretase (Homo sapiens, UniProt P49768).
T1 construct: endogenous in cells; host or cells: SKNBE2 cells carrying APP 695 wild type
Description: Screening for γ-secretase-modulating activity in SKNBE2 cells carrying the APP 695-wild type (assay per Citron et al 1997). It is filed as cell-based. Particulars: @ 1 uM; SKNBE2 cells carrying APP 695-wild type. The method, then:
Screening of the Compounds of the Invention for γ-Secretase-Modulating Activity
Screening was carried out using SKNBE2 cells carrying the APP 695-wild type, grown in DMEM/NUT-mix F12 (HAM) provided by Gibco (cat no. 31330-38) containing 5% Serum/Fe supplemented with 1% non-essential amino acids.
Cells were grown to near confluency.
The screening was performed using the assay as described in Citron et al (1997) Nature Medicine 3: 67.
Take `CC(C)CC(C(=O)O)c1cc(-c2ccc(C(F)(F)F)cc2)nc(-c2cccc(C(F)(F)F)c2)c1` (stereo not shown) [Example 12, 4-Methyl-2-[2-(3-trifluoromethyl-phenyl)-6-(4-trifluoromethyl-phenyl)-pyridin-4-yl]-pentanoic acid]: the inhibition at 1 µM is 32%.

For the molecule `CC(C)CC(C(=O)O)c1cc(-c2ccccc2)nc(-c2ccc(C(F)(F)F)cc2)c1` (stereo not shown) [Example 38, 4-Methyl-2-[2-phenyl-6-(4-trifluoromethyl-phenyl)-pyridin-4-yl]-pentanoic acid], testing at 1 µM gave an inhibition of 8%.

For `C=C(C)CC(C(=O)O)c1cc(-c2ccc(C(F)(F)F)cc2)nc(-c2cc(F)ccc2F)c1` (stereo not shown) [Example 24, 2-[2-(2,5-Difluoro-phenyl)-6-(4-trifluoromethyl-phenyl)-pyridin-4-yl]-4-methyl-pent-4-enoic acid], the inhibition at 1 µM stood at 22%.

Regarding `Cc1ccc(-c2cc(C(CC(C)C)C(=O)O)cc(-c3ccc(C(F)(F)F)cc3)n2)cc1` (stereo not shown) [Example 11, 4-Methyl-2-[2-p-tolyl-6-(4-trifluoromethyl-phenyl)-pyridin-4-yl]-pentanoic acid], the inhibition at 1 µM is 0%.

Molecule `C=C(C)CC(C(=O)O)c1cc(-c2ccc(C(F)(F)F)cc2)nc(-c2ccc(C(F)(F)F)cc2C(F)(F)F)c1` (stereo not shown) [Example 16, 2-[2-(2,4-Bis-trifluoromethyl-phenyl)-6-(4-trifluoromethyl-phenyl)-pyridin-4-yl]-4-methyl-pent-4-enoic acid] came in with an inhibition at 1 µM of 23%.

In the case of `CC(C)COc1cccc(-c2cc(C(CC(C)C)C(=O)O)cc(-c3ccc(C(F)(F)F)cc3)n2)c1` (stereo not shown) [Example 36, 2-[2-(3-Isobutoxy-phenyl)-6-(4-trifluoromethyl-phenyl)-pyridin-4-yl]-4-methyl-pentanoic acid], the inhibition at 1 µM stood at 41%.

The molecule `CC(C)CC(C(=O)O)c1cc(-c2ccc(Oc3ccccc3)cc2)nc(-c2ccc(C(F)(F)F)cc2)c1` (stereo not shown) [Example 37, 4-Methyl-2-[2-(4-phenoxy-phenyl)-6-(4-trifluoromethyl-phenyl)-pyridin-4-yl]-pentanoic acid] registered an inhibition at 1 µM of 73%.

The molecule `C=C(C)CC(C(=O)O)c1cc(-c2ccc(C(F)(F)F)cc2)nc(-c2cccc(-c3ccccc3)c2)c1` (stereo not shown) [Example 34, 2-[2-Biphenyl-3-yl-6-(4-trifluoromethyl-phenyl)-pyridin-4-yl]-4-methyl-pent-4-enoic acid] showed an inhibition at 1 µM of 16%.

The molecule `O=C(O)Cc1cc(-c2ccc(C(F)(F)F)cc2)nc(N(CCC2CCCCC2)c2ccc(C(F)(F)F)cc2)c1` [Example 43, [2-[(2-Cyclohexyl-ethyl)-(4-trifluoromethyl-phenyl)-amino]-6-(4-trifluoromethyl-phenyl)-pyridin-4-yl]-acetic acid] yielded an inhibition at 1 µM of 56%.

As for `CC(C)CC(C(=O)O)c1cc(-c2ccc(-c3ccccc3)cc2)nc(-c2ccc(C(F)(F)F)cc2)c1` (stereo not shown) [Example 13, 2-[2-Biphenyl-4-yl-6-(4-trifluoromethyl-phenyl)-pyridin-4-yl]-4-methyl-pentanoic acid], the inhibition at 1 µM was found to be 49%.

For the molecule `CC(C)CC(C(=O)O)c1cc(-c2ccc(C(F)(F)F)cc2)nc(-c2cc3ccccc3s2)c1` (stereo not shown) [Example 29, 2-[2-Benzo[b]thiophen-2-yl-6-(4-trifluoromethyl-phenyl)-pyridin-4-yl]-4-methyl-pentanoic acid], the inhibition at 1 µM worked out at 57%.

Staying with this assay, now noted: SKNBE2 cells carrying APP 695-wild type.
`CC(C)CC(C(=O)O)c1cc(-c2ccc(C(F)(F)F)cc2)nc(-c2ccc(C(F)(F)F)cc2)c1` (stereo not shown) [Example 1, 2-[2,6-Bis-(4-trifluoromethyl-phenyl)-pyridin-4-yl]-4-methyl-pentanoic acid]: the concentration giving a half-maximal response (EC50) stood at 260 nM. This counts as sub-micromolar.

In turn, `CC(C)CC(C(=O)O)c1cc(-c2ccc(C(C)C)cc2)nc(-c2ccc(C(F)(F)F)cc2)c1` (stereo not shown) [Example 9, 2-[2-(4-Isopropyl-phenyl)-6-(4-trifluoromethyl-phenyl)-pyridin-4-yl]-4-methyl-pentanoic acid] registered an EC50 of 730 nM.
